Test results reported in publication PMC10783051 (Microbiology Spectrum, 2023).

Test system: Streptomyces venezuelae ATCC 10712
Assay: In planta co-inoculation on tomato roots, UPLC-MS of rhizosphere extracts
Conditions: tomato roots on Hoagland agar, 7 days at 22°C, UPLC-MS of agar near the roots, four biological replicates
Protocol: For the in planta studies, tomato seeds (Solanum lycopersicum var. Moneymaker) were sterilized following the protocol described by ([26]). Briefly, tomato seeds were primarily sterilized in 70% ethanol (vol/vol) by gently shaking for 2 min. Further, the ethanol was removed and the seeds were added to 50 mL of the sterilization solution [4.5 mL of bleach containing 9.5% (vol/vol) of active chlorine, 0.01 g of Tween 80, and 45.5 mL of sterile water] and gently shaken for 10 min. Seeds were thereafter washed 10 times with water to eliminate sterilization solution residues. […]
All UPLC-MS analyses were performed using an Agilent 1290 Infinity II coupled with a diode array detector and a mass detector (Jet Stream ESI-Q-TOF 6530) in positive mode with the parameters set up as follows: capillary voltage of 3.5 kV, nebulizer pressure of 35 lb/in^2, drying gas of 8 L/min, drying gas temperature of 300°C, flow rate of sheath gas of 11 L/min, sheath gas temperature of 350°C, fragmentor voltage of 175 V, skimmer voltage of 65 V, and octopole radiofrequency of 750 V. Accurate mass spectra were recorded in the m/z range of 300–1,700. […]

iturin
linear forms in rhizosphere extracts upon co-inoculation of Bv with Sv: high proportion of linear
